From ChEMBL document CHEMBL1131642, “Synthesis and antibacterial activity of O-methyl derivatives of azalide antibiotics: I. 4", 11 and 12-OMe derivatives via direct methylation” (1998)
In brackets after ≈: the same amount, converted by molar mass.

Columns and labels:
Assay type in all cases: functional
Staphylococcus aureus = assay: Minimum inhibitory concentration against macrolide susceptible strain of Staphylococcus aureus (MB2865)
Bacillus subtilis = assay: Minimum inhibitory concentration against macrolide susceptible strains of Bacillus subtilis (MB5586)
Enterococcus faecium = assay: Minimum inhibitory concentration against macrolide susceptible strain of Enterococcus faecium (MB5516)
Enterococcus faecalis = assay: Minimum inhibitory concentration against macrolide susceptible strain of Enterococcus faecalis (MB5407)
Streptococcus pneumoniae = assay: Minimum inhibitory concentration against macrolide susceptible strain of Streptococcus pneumoniae (MB3957)
Streptococcus pyogenes = assay: Minimum inhibitory concentration against macrolide susceptible strain of Streptococcus pyogenes (MB2874)

SMILES	MIC (Staphylococcus aureus) [mg/L]	MIC (Bacillus subtilis) [mg/L]	MIC (Enterococcus faecium) [mg/L]	MIC (Enterococcus faecalis) [mg/L]	MIC (Streptococcus pneumoniae) [mg/L]	MIC (Streptococcus pyogenes) [mg/L]
CC[C@H]1OC(=O)[C@H](C)[C@@H](O[C@H]2C[C@@](C)(OC)[C@@H](O)[C@@H](C)O2)[C@H](C)[C@@H](O[C@@H]2O[C@H](C)C[C@@H](N(C)C)[C@H]2O)[C@](C)(O)C[C@@H](C)CN(C)[C@H](C)[C@@H](OC)[C@]1(C)OC	8 (≈ 10.3 µM)	4 (≈ 5.15 µM)	2 (≈ 2.57 µM)	16 (≈ 20.6 µM)	1 (≈ 1.29 µM)	0.12 (≈ 0.154 µM)
CC[C@H]1OC(=O)[C@H](C)[C@@H](O[C@H]2C[C@@](C)(OC)[C@@H](O)[C@H](C)O2)[C@H](C)[C@@H](O[C@@H]2O[C@H](C)C[C@H](N(C)C)[C@H]2O)[C@](C)(O)C[C@@H](C)CN(C)[C@H](C)[C@@H](O)[C@]1(C)O [AZITHROMYCIN]	0.5 (≈ 0.668 µM)	1 (≈ 1.34 µM)	0.25 (≈ 0.334 µM)	4 (≈ 5.34 µM)	< 0.06	0.03 (≈ 0.0401 µM)
CC[C@H]1OC(=O)[C@H](C)[C@@H](O[C@H]2C[C@@](C)(OC)[C@@H](OC)[C@@H](C)O2)[C@H](C)[C@@H](O[C@@H]2O[C@H](C)C[C@@H](N(C)C)[C@H]2O)[C@](C)(O)C[C@@H](C)N(C)C[C@H](C)[C@@H](O)[C@]1(C)OC	8 (≈ 10.3 µM)	4 (≈ 5.15 µM)	4 (≈ 5.15 µM)	16 (≈ 20.6 µM)	1 (≈ 1.29 µM)	0.25 (≈ 0.322 µM)
CC[C@H]1OC(=O)[C@H](C)[C@@H](O[C@H]2C[C@@](C)(OC)[C@@H](OC)[C@@H](C)O2)[C@H](C)[C@@H](O[C@@H]2O[C@H](C)C[C@@H](N(C)C)[C@H]2O)[C@](C)(O)C[C@@H](C)N(C)C[C@H](C)[C@@H](OC)[C@]1(C)OC	32 (≈ 40.5 µM)	2 (≈ 2.53 µM)	8 (≈ 10.1 µM)	32 (≈ 40.5 µM)	4 (≈ 5.06 µM)	0.5 (≈ 0.632 µM)
CC[C@H]1OC(=O)[C@H](C)[C@@H](O[C@H]2C[C@@](C)(OC)[C@@H](O)[C@@H](C)O2)[C@H](C)[C@@H](O[C@@H]2O[C@H](C)C[C@@H](N(C)C)[C@H]2O)[C@](C)(O)C[C@@H](C)CN(C)[C@H](C)[C@@H](O)[C@]1(C)OC	1 (≈ 1.31 µM)		0.25 (≈ 0.328 µM)	4 (≈ 5.24 µM)	0.03 (≈ 0.0393 µM)	0.03 (≈ 0.0393 µM)
CC[C@H]1OC(=O)[C@H](C)[C@@H](O[C@H]2C[C@@](C)(OC)[C@@H](O)[C@@H](C)O2)[C@H](C)[C@@H](O[C@@H]2O[C@H](C)C[C@@H](N(C)C)[C@H]2O)[C@](C)(O)C[C@@H](C)CN(C)[C@H](C)[C@@H](OC)[C@]1(C)O	1 (≈ 1.31 µM)	1 (≈ 1.31 µM)	0.5 (≈ 0.655 µM)	8 (≈ 10.5 µM)	0.03 (≈ 0.0393 µM)	0.03 (≈ 0.0393 µM)
CC[C@H]1OC(=O)[C@H](C)[C@@H](O[C@H]2C[C@@](C)(OC)[C@H](O)[C@H](C)O2)[C@H](C)[C@@H](O[C@@H]2O[C@H](C)C[C@H](N(C)C)[C@H]2O)[C@](C)(O)C[C@@H](C)N(C)C[C@H](C)[C@@H](O)[C@]1(C)O	0.3 (≈ 0.401 µM)	0.3 (≈ 0.401 µM)	0.125 (≈ 0.167 µM)	2 (≈ 2.67 µM)	< 0.06	< 0.06
CC[C@H]1OC(=O)[C@H](C)[C@@H](O[C@H]2C[C@@](C)(OC)[C@@H](OC)[C@@H](C)O2)[C@H](C)[C@@H](O[C@@H]2O[C@H](C)C[C@@H](N(C)C)[C@H]2O)[C@](C)(O)C[C@@H](C)CN(C)[C@H](C)[C@@H](OC)[C@]1(C)OC	8 (≈ 10.1 µM)	8 (≈ 10.1 µM)	4 (≈ 5.06 µM)	16 (≈ 20.2 µM)	1 (≈ 1.26 µM)	0.25 (≈ 0.316 µM)
CC[C@H]1OC(=O)[C@H](C)[C@@H](O[C@H]2C[C@@](C)(OC)[C@@H](OC)[C@@H](C)O2)[C@H](C)[C@@H](O[C@@H]2O[C@H](C)C[C@@H](N(C)C)[C@H]2O)[C@](C)(O)C[C@@H](C)N(C)C[C@H](C)[C@@H](O)[C@]1(C)O	8 (≈ 10.5 µM)	4 (≈ 5.24 µM)	2 (≈ 2.62 µM)	8 (≈ 10.5 µM)	0.5 (≈ 0.655 µM)	0.03 (≈ 0.0393 µM)
CC[C@H]1OC(=O)[C@H](C)[C@@H](O[C@H]2C[C@@](C)(OC)[C@@H](OC)[C@@H](C)O2)[C@H](C)[C@@H](O[C@@H]2O[C@H](C)C[C@@H](N(C)C)[C@H]2O)[C@](C)(O)C[C@@H](C)N(C)C[C@H](C)[C@@H](OC)[C@]1(C)O	32 (≈ 41.2 µM)	16 (≈ 20.6 µM)	16 (≈ 20.6 µM)	32 (≈ 41.2 µM)	2 (≈ 2.57 µM)	0.5 (≈ 0.643 µM)
